Results as given in patent EP0987250A1, “INDOLE DICARBOXYLIC ACID DERIVATIVES” (SHIONOGI & CO., LTD., priority 1997, dated 1998).

What was measured:
[1] = target: T1, human sPLA2 (Homo sapiens, UniProt P14555); assay: In vitro test for sPLA2-inhibitory action by PC/DOC method; type: biochemical; settings: PC/DOC = 1 mM/3 mM; Tris buffer 50 mM, pH 8.0; 40°C for 30 minutes; oleic acid measured by HPLC
T1 sequence (P14555 21-144): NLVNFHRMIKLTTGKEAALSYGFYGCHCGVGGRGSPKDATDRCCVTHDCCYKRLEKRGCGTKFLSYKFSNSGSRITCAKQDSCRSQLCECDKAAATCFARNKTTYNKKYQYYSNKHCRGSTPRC
Description: A 50 mM solution of 1-palmitoyl-1-oleoyl-sn-glycero-3-phosphatidylcholine in chloroform (PC) was used as a substrate. A 150 mM solution of sodium deoxycholate in methanol (DOC) was used as a surface-active agent
First, the substrate and the surface-active agent were transferred into an Eppendorf tube and the solvent was evaporated by applying a nitrogen stream. Then, the tube was placed in a desiccator and evacuated with a pump to complete dryness. Thereto was added water in an amount to be used for the assay and the solution was stirred for 1 minute. The final concentrations were adjusted so as to make PC/DOC = 1 mM/3 mM.
As the buffer solution for measurement was prepared a Tris buffer solution (50 mM, pH 8.0) containing 150 mM sodium chloride, calcium chloride (10 mM), and bovine serum albumin (1 mg/ml).
To a test compound solution were added the substrate solution and the buffer solution for measurement prepared as described above and the resulting mixture was stirred to mix. […] HPLC analysis was carried out under the following analysis conditions: Column: Supersphere ^R60 RP-8 (Merck & Co.) Mobile: Phase: Acetonitrile : Distilled water (93:7) Detection: Absorbance at 254 nm
The inhibitory activity of the compound was calculated from the amount of oleic acid thus-measured.

[2] = Evaluation of solubility in water; type: physicochemical; settings: thermodynamic from solid; Na salt: monosodium salt of 10 and 21, disodium salt (20) of 11; water added dropwise by 10 µl; corrected for mg in 1 ml at 23°C
Description: A solution of 10.3 mg (24.3 µmol) of compound (11) in 4.85 ml (48.6 µmol) of a 0.01 M methanolic solution of sodium methylate was filtered through a Millipore filter and then concentrated. The resulting residue was dried under reduced pressure to obtain disodium salt (20).

SMILES	IC50 [1] [nM]	solubility [2] [mg/mL]
CCc1c(C(=O)C(N)=O)c2c(OCC(=O)O)cc(C(=O)OC)cc2n1Cc1ccccc1 [compound 10]	1.7	68
CCc1c(C(=O)C(N)=O)c2c(OCC(=O)O)cc(C(=O)O)cc2n1Cc1ccccc1 [Compound 11, 1-Benzyl-6-carboxy-4-carboxymethyloxy-2-ethyl-3-oxamoyl-1H-indole]	43.8	228
CCc1c(C(=O)C(N)=O)c2c(OCC(=O)O)cccc2n1Cc1ccccc1 [Compound 21, reference compound]	–	1.4
